Source: US4716153A, “Stable oral preparation of macrolide antibiotics and method for stabilizing the same” (priority 1982, dated 1987)
Like-named read-outs stand apart in the source and are kept apart here.

Assays:
[1] = Elution rate of TMS-19-Q with glycine and citric or tartaric acid in diluted physiological saline solution; format: physicochemical; conditions: for elution rate with 40 mg or more of citric acid: citric acid 40 mg or more, saline + water
Experimental: To 40 ml of physiological saline solution 120 ml of water was added, and after the solution was placed in a vessel whose temperature was kept constant in a thermostat at 37° C., 200 mg of TMS-19-Q, 340 mg of glycine and 0-80 mg of citric acid were added, and the mixture was stirred by a magnetic stirrer. Then sampling thereof was conducted in a lapse of time (at 5 minutes, 15 minutes and 30 minutes) to observe absorbance (wavelength: 232 nm) and elution rate was calculated.
To 40 ml of physiological saline solution 120 ml of water was added, and after the solution was kept in a vessel whose temperature was kept constant in a thermostat controlled at 37° C., 200 mg of TMS-19-Q, 340 mg of glycine and 0-80 mg of tartaric acid were added, and the same procedures as those of Example 27 were followed to examine the elution rate of TMS-19-Q.

[2] = Stability in Japan Pharmacopoeia 1st solution (pH 1.2) at 37° C., with or without stabilizer (TLC densitometry, 232 nm); format: physicochemical
Excerpt: The stabilizers showing pH 3-10 used in the invention may be substances having a buffering or antacid action and showing pH 3-10, preferably 5.5-6.5. These are, for example, neutral amino acids or their basic salts, basic salts of acidic amino acids, basic amino acids,basic salts of organic carboxylic acids,basic salts of polybasic organic carboxylic acids, basic salts of uronic acid or inorganic salt antacids. The neutral amino acids or basic salts thereof include glycine, alanine, aminobutyric acid, proline, leucine, isoleucine, methionine, threonine, serine, valine, or their aluminium salts, for example aluminium glycinate. Among these, glycine, alanine and aluminium glycinate, both of which show pH 5.5-6.5, are preferable. The basic salts of acidic amino acid include monobasic salts such as a monosodium, monopotassium or magnesium salt of glutaminic or aspartic acid. Among these monobasic salts, monosodium glutamate or monosodium aspartate is preferable. The basic amino acids include arginine, glutamine, asparagine, citrulin, tryptophane and histidine. Especially, histidine is preferable. The basic salts of monobasic organic carboxylic acid include basic salts such as sodium, potassium, magnesium or aluminium salts of saturated monobasic organic carboxylic acids such as acetic acid and propionic acid, of unsaturated monobasic organic acids such as acrylic acid, crotonic acid and vinylacetic acid, and of other monobasic organic acids such as lactic acid, pyruvic acid, glyceric acid and acetoacetic acid. The basic salts of polybasic organic carboxylic acid include mono-, di- or tri-sodium, potassium, magnesium, calcium or aluminium salts of saturated polybasic organic carboxylic acids such as oxalic acid, malonic acid, succinic acid, glutaric acid, adipic acid and pimelic acid, of unsaturated polybasic organic carboxylic acids such as maleic acid and fumaric acid, and of other polybasic organic carboxylic acids such as meso-oxalic acid, malic acid, oxalacetic acid and citric acid. Among these, trisodium citrate is preferable. The basic salts of uric acids include sodium salts of glucuronic acid, galacturonic acid or their polymers such as alginic acid or peptic acid and dihydroxyaluminium aminoacetate sodium alginate. The inorganic salt antacids include calcium hydrogenphosphate, disodium hydrogenphosphate, dipotassium hydrogenphosphate, magnesium hydrogenphosphate, calcium carbonate, sodium carbonate, potassium carbonate, sodium hydrogen carbonate, aluminium carbonate, magnesium carbonate, potassium metasilicate, magnesium aluminate metasilicate, sodium metasilicate, synthetic aluminium silicate, magnesium silicate, aluminium silicate, magnesium aluminate silicate, magnesium-bismuth aluminate silicate, magnesium oxide, alumina-magnesium hydroxide, magnesium peroxide, magnesium hydroxide, aluminium hydroxide, synthetic hydrotarphite, aluminium phosphate and others. Especially, calcium phosphate and magnesium phosphate are preferable. Each of these stabilizers may be used alone or in the form of a mixture. […] A method for stabilization of 16-membered ring macrolide antibiotics of the present invention will be described in detail. The afore-mentioned various 16-membered ring macrolide antibiotics, for example 9-hydroxy 16-membered ring macrolides such as midecamycin, 3"-propionylleucomycin A5 and josamycin and 9-acyloxy 16-membered ring macrolides such as 9,3"-diacetylmidecamycin and 9-propionyljosamycin show extremely poor residual rates when added to an acidic solution of the Japanese Pharmacopoeia lst liquid (pH 1.2) and allowed to stand. That is, the 9hydroxy 16-membered ring maclorides decompose in a short time to by-produce their iso, demycarosyl and/or isodemycarosyl forms. The 9-acyloxy 16-membered ring macrolides decompose, too, to by-produce their 9-deacyl, 9-deacyl-iso, demycarosyl, 9-deacyl-demycarosyl or 9-deacyl-iso-demycarosyl forms. […]

[3] = AUC after oral administration of tablets to beagle dogs (bioassay of blood); format: in vivo; conditions: for AUC at 6 h: dog, blood, po, 500 mg
Experimental: An amount of the dissolution accelerators used, showing pH 2.5-4 in an aqueous solution will be described in detail. […] In all of these cases, the elution rate of 3"-propionylleucomycin A5 is less than 60%. […] In order to obtain their good absorbability, generally, it is necessary to use the pH at which the elution rate is favorable. […] The accelerators need to be used in 5-100 mg in formulating preparations. It is particularly preferred that these dissolution accelerators, for example tartaric acid and citric acid are used in a total amount of 40-100 mg at single administration. That is, one tablet is allowed to contain about 40-100 mg in the administration of one tablet a time, and about 20-50 mg each in two tablets a time. It is also particularly preferred, when the antibiotics are applied orally in the form of powders, fine granules, capsules, granules or dry syrups, that the accelerators are used in approximately 40-100 mg to the 16-membered ring macrolide antibiotics given in a 200 mg potency a time. It is suitable for preservation that these dissolution accelerators are used coated with film-forming substances by a microcapsulization technique using the accelerators as core materials.
To a mixture comprising TMS-19-Q and light anhydrous silicic acid, 10% w/w HPMC aqueous solution was added. Then the mixture was kneaded, dried and sieved by the use of a 24 mesh sieve to obtain Granule A.
To a mixture comprising glycine, citric acid anhydride and light silicic acid, 5% w/w HPMC aqueous solution was added as binder, and the mixture was made into granules by fluidized bed method (FB method). Then the granules were dried and sieved through 24 mesh screen to obtain Granule B.
To Granule A and Granule B, L-HPC and Avicel PH301 (to be adjusted by an amount of citric acid added: 52.7-12.7 g) and magnesium stearate were added and mixed. Then, the mixed powder was molded by pressure to the size of 14×8 mm and tablets were obtained, each of which (430 mg) containing 100 mg potency of TMS-19-Q 170 mg glycine and citric acid (0, 10, 20, 30 and 40 mg).

Q: Which results are given for `CCCC(=O)OC1C(C)OC(OC2C(C)OC(OC3C(CC=O)CC(C)C(O)/C=C/C=C/CC(C)OC(=O)CC(O)C3OC)C(O)C2N(C)C)CC1(C)OC(=O)CC` (centres unmarked) [TMS-19-Q, 3"-propionyl leucomycin A5]?
A: elution rate with 0, 10 or 20 mg of citric acid ([1]; 200 mg potency, 340 mg glycine, pH 5.87, 5.51, 5.18): less than 60%; elution rate with 20 mg or 10 mg of citric acid ([1]; 340 mg glycine, citric acid 20 mg or 10 mg, after 15-minute stirring): 45-55%; elution rate with 40 mg or more of citric acid ([1]; 340 mg glycine): ≥ 95%; elution rate with 40 mg or more of citric acid ([1]; 340 mg glycine, listed as 3"-propionylleucomycin A5): more than 95%; elution rate with 0 mg of citric acid ([1]; 340 mg glycine, no citric acid, after 15-minute stirring): 10%; elution rate with 0 mg of tartaric acid ([1]; 340 mg glycine, no tartaric acid, after 15-minute stirring): 10%; elution rate with 20 mg or 10 mg of tartaric acid ([1]; 340 mg glycine, tartaric acid 20 mg or 10 mg, after 15-minute stirring): 40-55%; elution rate with 40 mg or more of tartaric acid ([1]; 340 mg glycine, tartaric acid 40 mg or more, value at 15 minutes): ≥ 95%; time within which elution was nearly completed (citric acid) ([1]; citric acid, solutions whose pH is equal to or less than 4.23): ≤ 15 min; time within which elution was nearly completed (tartaric acid) ([1]; tartaric acid, solutions whose pH is equal to or less than 4.09): ≤ 15 min; improvement of stability compared with control, 30 minutes ([2]; 150 mg of glycine, value at 30 minutes): 30%; stability in 1st solution (in words) ([2]; 1st solution pH 1.2, no stabilizer): extremely unstable; stability with tri-sodium citrate (in words) ([2]; 150-300 mg of tri-sodium citrate, 1st solution): very much enhanced; stability with calcium phosphate (in words) ([2]; 150-400 mg of calcium phosphate, 1st solution): very much enhanced; stability with glycine (in words) ([2]; 150-900 mg of glycine, 1st solution): stabilized well; stability with L-aspartic acid monosodium salt (in words) ([2]; 200-500 mg of Asp.Na, 1st solution): very much enhanced; stability with monosodium glutamate (in words) ([2]; 200-500 mg of Glu.Na, 1st solution): very much enhanced; degraded at 0.5 h ([2]; jp 1st solution, 1st solution pH 1.2, 37° C., 30 minutes, no stabilizer, read-out: decomposites (balance), 30 minutes): 39.5%; remaining at 0.5 h ([2]; jp 1st solution, 1st solution pH 1.2, 37° C., 30 minutes, no stabilizer, read-out: residual amount after contact with 1st solution, 30 minutes): 60.5%; degraded at 1 h ([2]; jp 1st solution, 1st solution pH 1.2, 37° C., 60 minutes, no stabilizer, read-out: decomposites (balance), 60 minutes): 41.4%; remaining at 1 h ([2]; jp 1st solution, 1st solution pH 1.2, 37° C., 60 minutes, no stabilizer, read-out: residual amount after contact with 1st solution, 60 minutes): 58.6%; stability with a larger amount of glycine (in words) ([2]; larger amount of glycine (up to 900 mg)): hardly decomposed; AUC versus amount of citric acid (in words) ([3]; beagles, oral, citric acid 30-40 mg): reached saturation; blood concentrations or absorbability (in words) ([3]; beagles, oral, citric acid more than 30 mg per tablet): Good blood concentrations or absorbability; AUC at 6 h ([3]; read-out: AUC (area under a blood level versus time curve), 0 mg citric acid): 11.8 µg·h/mL; AUC at 6 h ([3]; read-out: AUC (area under a blood level versus time curve), 10 mg citric acid): 12.3 µg·h/mL; AUC at 6 h ([3]; read-out: AUC (area under a blood level versus time curve), 20 mg citric acid): 17 µg·h/mL; AUC at 6 h ([3]; read-out: AUC (area under a blood level versus time curve), 30 mg citric acid): 20.5 µg·h/mL; AUC at 6 h ([3]; read-out: AUC (area under a blood level versus time curve), 40 mg citric acid): 20.9 µg·h/mL
